Data set [1] relates to ovariectomized (OVX) rats. The conditions noted are these: rat, in vivo, po, 1.5 mg/kg.
The target of data set [2] is integrin αvβ3 (UniProt P05106+P06756). The data set is classed as cell-based.
Data set [3] deals with platelet aggregation (Homo sapiens, UniProt P05106+P08514). Format: cell-based.
For data set [4], the system named is ovariectomized (OVX) mice. Further details: species or system ICR mice. The settings on record: mouse, in vivo, po, 1.5 mg/kg.
Data set [5] has as its target T1, integrin αIIbβ3 (Homo sapiens, UniProt P05106+P08514).
T1 construct: host or cells: CHO (CHO-αIIbβ3)
Format: cell-based.

For data set [6] the following is noted: mouse, in vivo.
Data set [7] concerns osteoclast precursors (bone marrow hematopoietic cells). The data set is classed as cell-based, SD rats. The settings on record: read-out: IC50 Osteoclastogenesis.
Data set [8] concerns the target T2, integrin α5β1 (Homo sapiens, UniProt P05556+P08648).
T2 construct: Human erythroleukemia K562 cells were purchased from ATCC; host or cells: K562
Format: cell-based.

Like-named read-outs stand apart in the source and are kept apart here.

T2 sequence (P08648 42-894 limits assumed): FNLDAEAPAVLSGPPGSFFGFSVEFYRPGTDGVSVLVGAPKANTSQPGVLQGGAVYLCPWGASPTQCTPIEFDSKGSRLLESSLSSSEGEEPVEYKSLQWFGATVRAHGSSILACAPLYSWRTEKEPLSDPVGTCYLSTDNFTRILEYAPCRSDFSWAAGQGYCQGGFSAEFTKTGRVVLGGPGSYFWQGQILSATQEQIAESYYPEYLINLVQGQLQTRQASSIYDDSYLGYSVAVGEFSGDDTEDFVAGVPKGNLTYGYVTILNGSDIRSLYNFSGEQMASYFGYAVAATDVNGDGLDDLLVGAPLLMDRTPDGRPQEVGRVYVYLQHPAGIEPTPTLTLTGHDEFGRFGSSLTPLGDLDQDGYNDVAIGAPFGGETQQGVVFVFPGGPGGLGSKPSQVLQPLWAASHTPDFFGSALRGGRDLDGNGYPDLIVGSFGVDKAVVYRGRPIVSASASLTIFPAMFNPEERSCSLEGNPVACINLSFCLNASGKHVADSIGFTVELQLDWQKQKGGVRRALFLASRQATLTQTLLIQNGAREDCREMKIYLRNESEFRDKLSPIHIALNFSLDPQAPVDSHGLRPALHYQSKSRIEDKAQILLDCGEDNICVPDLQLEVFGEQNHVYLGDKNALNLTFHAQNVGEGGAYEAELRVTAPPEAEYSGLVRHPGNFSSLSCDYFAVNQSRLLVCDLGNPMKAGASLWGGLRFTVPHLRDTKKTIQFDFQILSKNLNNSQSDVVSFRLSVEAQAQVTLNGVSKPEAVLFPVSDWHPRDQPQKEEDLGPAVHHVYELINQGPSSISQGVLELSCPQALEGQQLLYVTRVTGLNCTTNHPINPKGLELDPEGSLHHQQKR
T2 sequence (P08648 895-1049 partner limits assumed): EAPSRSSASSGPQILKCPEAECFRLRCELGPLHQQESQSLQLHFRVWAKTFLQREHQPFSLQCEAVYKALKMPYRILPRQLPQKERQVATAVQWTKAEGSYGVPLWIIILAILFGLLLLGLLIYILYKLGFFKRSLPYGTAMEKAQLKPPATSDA
T2 sequence (P05556 21-798): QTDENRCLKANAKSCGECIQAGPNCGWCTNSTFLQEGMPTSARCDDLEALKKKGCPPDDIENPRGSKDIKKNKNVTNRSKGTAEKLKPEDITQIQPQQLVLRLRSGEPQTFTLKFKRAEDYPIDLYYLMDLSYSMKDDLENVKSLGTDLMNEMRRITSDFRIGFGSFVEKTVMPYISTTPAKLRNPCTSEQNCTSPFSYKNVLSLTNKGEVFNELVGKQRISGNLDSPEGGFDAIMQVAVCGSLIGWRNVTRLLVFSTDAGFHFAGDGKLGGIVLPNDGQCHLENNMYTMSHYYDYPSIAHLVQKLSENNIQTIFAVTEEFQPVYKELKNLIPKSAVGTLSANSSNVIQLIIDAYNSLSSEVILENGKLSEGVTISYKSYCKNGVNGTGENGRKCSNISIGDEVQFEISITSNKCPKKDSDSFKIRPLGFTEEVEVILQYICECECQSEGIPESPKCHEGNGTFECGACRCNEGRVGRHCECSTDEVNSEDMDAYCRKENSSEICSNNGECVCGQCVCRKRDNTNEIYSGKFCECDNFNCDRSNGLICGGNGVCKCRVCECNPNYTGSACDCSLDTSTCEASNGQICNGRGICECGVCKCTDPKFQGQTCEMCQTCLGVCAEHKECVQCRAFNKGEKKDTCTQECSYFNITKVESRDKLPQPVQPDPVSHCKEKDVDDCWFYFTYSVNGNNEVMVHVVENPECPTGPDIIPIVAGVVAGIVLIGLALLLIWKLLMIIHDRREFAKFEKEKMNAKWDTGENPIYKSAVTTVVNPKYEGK
Sequence of integrin αvβ3 (P06756 31-1048): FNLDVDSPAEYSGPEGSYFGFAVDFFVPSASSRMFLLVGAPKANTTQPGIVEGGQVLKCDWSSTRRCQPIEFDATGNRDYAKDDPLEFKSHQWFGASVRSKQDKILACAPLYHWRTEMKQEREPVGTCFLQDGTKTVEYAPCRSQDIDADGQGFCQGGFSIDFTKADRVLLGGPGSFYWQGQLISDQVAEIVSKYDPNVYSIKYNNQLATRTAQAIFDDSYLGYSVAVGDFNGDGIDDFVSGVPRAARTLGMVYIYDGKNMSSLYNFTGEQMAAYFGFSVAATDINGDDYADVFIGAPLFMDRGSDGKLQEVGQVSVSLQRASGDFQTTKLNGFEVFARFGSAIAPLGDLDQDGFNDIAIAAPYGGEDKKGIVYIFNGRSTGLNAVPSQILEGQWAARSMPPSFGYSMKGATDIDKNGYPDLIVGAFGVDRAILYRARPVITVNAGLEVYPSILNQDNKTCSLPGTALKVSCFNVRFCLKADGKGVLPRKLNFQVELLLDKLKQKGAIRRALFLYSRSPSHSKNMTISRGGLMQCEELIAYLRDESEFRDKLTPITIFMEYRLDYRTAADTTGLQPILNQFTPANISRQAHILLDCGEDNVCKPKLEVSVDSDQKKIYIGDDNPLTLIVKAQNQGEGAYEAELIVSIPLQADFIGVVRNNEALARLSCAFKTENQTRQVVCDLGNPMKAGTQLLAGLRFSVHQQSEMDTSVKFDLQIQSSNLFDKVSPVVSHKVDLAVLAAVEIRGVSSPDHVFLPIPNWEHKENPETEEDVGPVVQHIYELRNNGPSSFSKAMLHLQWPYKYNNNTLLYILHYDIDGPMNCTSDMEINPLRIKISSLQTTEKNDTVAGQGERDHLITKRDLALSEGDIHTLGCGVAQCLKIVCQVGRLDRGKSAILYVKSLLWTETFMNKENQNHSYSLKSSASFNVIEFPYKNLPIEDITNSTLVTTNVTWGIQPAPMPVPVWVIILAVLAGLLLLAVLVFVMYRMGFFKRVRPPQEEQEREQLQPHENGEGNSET
Sequence of integrin αvβ3 (P05106 27-788): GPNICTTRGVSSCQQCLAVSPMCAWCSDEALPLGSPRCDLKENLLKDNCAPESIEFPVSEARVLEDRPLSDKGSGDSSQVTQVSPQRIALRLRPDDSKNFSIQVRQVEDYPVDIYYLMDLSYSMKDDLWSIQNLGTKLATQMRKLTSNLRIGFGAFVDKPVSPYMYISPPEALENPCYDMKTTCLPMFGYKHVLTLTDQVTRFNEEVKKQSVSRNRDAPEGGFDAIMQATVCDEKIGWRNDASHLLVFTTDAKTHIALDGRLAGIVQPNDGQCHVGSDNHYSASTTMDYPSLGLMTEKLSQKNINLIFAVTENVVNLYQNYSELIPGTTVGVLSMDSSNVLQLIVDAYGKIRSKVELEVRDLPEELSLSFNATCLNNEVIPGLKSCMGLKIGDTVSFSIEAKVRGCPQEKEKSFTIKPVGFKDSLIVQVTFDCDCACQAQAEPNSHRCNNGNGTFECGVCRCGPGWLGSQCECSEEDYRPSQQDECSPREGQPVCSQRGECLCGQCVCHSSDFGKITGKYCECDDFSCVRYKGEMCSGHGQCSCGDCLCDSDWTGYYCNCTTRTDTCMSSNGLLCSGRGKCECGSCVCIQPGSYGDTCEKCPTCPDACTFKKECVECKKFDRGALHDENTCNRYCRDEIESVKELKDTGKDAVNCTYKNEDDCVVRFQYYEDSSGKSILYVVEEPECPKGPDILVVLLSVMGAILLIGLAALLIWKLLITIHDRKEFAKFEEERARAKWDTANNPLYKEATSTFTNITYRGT

Turning to `NCCCC(O)(P(=O)(O)O)P(=O)(O)O` [Alendronate, alendronate, reference compound], in data set [1], the “ovariectomy-induced increase in osteoclast activity (serum C-terminal telopeptide of type-I collagen)” value is reported as “reversed the ovariectomy-induced increase in osteoclast activity”.

As for rhodostomin [reference compound], the IC50 in data set [2] (read-out: IC50 αvβ3) came to 13 nM; in data set [2] (read-out: IC50 αvβ3/Fg) it was 13 nM; in data set [3], 83 nM; in data set [5] (read-out: IC50 αIIbβ3) it was 21 nM; in data set [5] (read-out: IC50 αllbβ3/Fg), 21 nM; in data set [7], 5.52 nM. This compound also registered a BMC in data set [4] of 0.619 ± 0.006 g. The BMD in data set [4] is 0.090 ± 0.001 g/cm^2. Further, the “C-terminal telopeptide of COL(1)α1 chain” value in data set [4] was 397 ± 13.6 ng/mL. Besides, in data set [6], the “effect on tail bleeding (clotting) time” value is “pronounced effect in prolonging the clotting time”.

Regarding “PRGDDL: rhodostomin variant with RGD motif ^48Pro-Arg-Gly-Asp-Asp-Leu^53, SEQ ID NO: 33”, the IC50 in data set [7] came to 3.15 nM.

For the compound “RID: rhodostomin variant with RGD motif ^48Pro-Arg-Ile-Asp-Met-Pro^53, SEQ ID NO: 39”, in data set [4], the BMC is listed as 0.622 ± 0.004 g, the BMD was 0.091 ± 0.001 g/cm^2 and the “C-terminal telopeptide of COL(1)α1 chain” value turned out to be 391 ± 12 ng/mL. In data set [7], the IC50 worked out at 5.82 nM.

For “PGP: rhodostomin variant having a RGD motif variant ^48PRGDGP^53, SEQ ID NO: 42”, the IC50 in data set [3] was found to be 283 nM; in data set [5] (read-out: IC50 αIIbβ3) it was 500 nM; in data set [5] (read-out: IC50 αllbβ3/Fg), 2590 nM; in data set [8] (read-out: IC50 α5β1) it was 4000 nM; in data set [8] (read-out: IC50 α5β1/Fn), 3460 nM.

“PRLDDL: rhodostomin variant with RGD motif ^48Pro-Arg-Leu-Asp-Asp-Leu^53, SEQ ID NO: 37”: in data set [4], the BMC came to 0.563 ± 0.056 g, the BMD stood at 0.091 ± 0.002 g/cm^2 and the “C-terminal telopeptide of COL(1)α1 chain” value came out at 410 ± 25.1 ng/mL.

With “ARGDDL: rhodostomin variant with RGD motif ^48Ala-Arg-Gly-Asp-Asp-Leu^53, SEQ ID NO: 32”, in data set [4], the BMC was determined as 0.624 ± 0.007 g, the BMD amounted to 0.093 ± 0.001 g/cm^2 and the “C-terminal telopeptide of COL(1)α1 chain” value turned out to be 389 ± 16.4 ng/mL. The IC50 in data set [7] was determined as 8.02 nM.

The values are drawn from US8183201B2 (priority 2006, dated 2012).
